Patent US5591726A, “Heterocyclylalkyl diarylboron ester and thioester fungicidal agents” (American Cyanamid Company, priority 1994, dated 1997)

Assays:
[1] = system: Cladosporium cucumerinum (fenarimol-resistant and -sensitive strains); format: cell-based; conditions: EC50 resistant strain / EC50 sensitive strain, 50 to 54 hours
[2] = system: Septoria nodorum (propiconazole-resistant and -sensitive strains); format: cell-based; conditions: EC50 resistant strain / EC50 sensitive strain, 50 to 54 hours
[3] = system: Ustilago avenae (triadimefon-resistant and -sensitive strains); format: cell-based; conditions: EC50 resistant strain / EC50 sensitive strain, 50 to 54 hours
Septoria nodorum = experiment: In vivo fungicidal evaluation, Wheat Septoria Nodorum (WSN); conditions: 200 ppm foliar spray
Method: Test compounds are dissolved or suspended in acetone and diluted with deionized water containing about 0.05% TWEEN®20, a polyoxyethylene sorbitan monolaurate surfactant manufactured by Atlas Chemical Industries, to give a concentration of 200 ppm.
Host plants are sprayed with the test solution, dried and inoculated with fungi. When disease symptom development is optimal, the plants are rated for disease control according to the rating scale shown below. Each test contains inoculated treated plants, inoculated untreated plants and a reference standard. When more than one test is run, the data are averaged.
WSN Wheat Septoria Nodorum

Pythium ultimum = experiment: In vitro fungicidal evaluation, PYTHUL; format: cell-based; conditions: 25 ppm; 3-7 days at 21° C. Also: ranges in brackets are in %.
Method: (§1) Test compounds are dissolved or suspended in acetone and dispersed into cell well plates containing a suspension of ground fungal mycelia/spores in a nutrient broth. Assay plates are incubated for 3-7 days at 21° C. Growth inhibition is measured visually and is rated using the following scale:
(§2) Untreated controls, solvent blanks and reference standards are included in each test.
(§3) Assay fungi include the plant pathogens, Pythium ultimum (PYTHUL); Rhizoctonia solani (RHIZSO); Fusarium oxysporum f. sp. cucumerinum (FUSOXC); and Pseudocercosporella herpotrichoides (PSDCHE).
(§4) When more than one test is run, the data are averaged. The compounds evaluated are reported by compound number given in Example 3.

Cercospora beticola = experiment: In vivo fungicidal evaluation, Sugar Beet Cercospora (SBC); conditions: 200 ppm foliar spray; also: ranges in brackets are in %
Method: (§5) Test compounds are dissolved or suspended in acetone and diluted with deionized water containing about 0.05% TWEEN®20, a polyoxyethylene sorbitan monolaurate surfactant manufactured by Atlas Chemical Industries, to give a concentration of 200 ppm. Host plants are sprayed with the test solution, dried and inoculated with fungi. When disease symptom development is optimal, the plants are rated for disease control according to the rating scale shown below. Each test contains inoculated treated plants, inoculated untreated plants and a reference standard. When more than one test is run, the data are averaged. The data obtained are shown in Table I. |SBC Sugar Beet Cercospora | Cercospora beticola

Botrytis cinerea = experiment: In vivo fungicidal evaluation, Pepper Botrytis (PB); conditions: 200 ppm foliar spray; also: ranges in brackets are in %
Method: as §5, with “|PB Pepper Botrytis Botrytis cinerea” for “|SBC Sugar Beet Cercospora | Cercospora beticola”

[4] = system: Pseudocercosporella herpotrichoides; experiment: In vitro fungicidal evaluation, PSDCHE; format: cell-based; conditions: 25 ppm; 3-7 days at 21° C. Also: ranges in brackets are in %.
Method: as §1, §2, §3, §4

Rhizoctonia solani = experiment: In vitro fungicidal evaluation, RHIZSO; format: cell-based; conditions: 25 ppm; 3-7 days at 21° C. Also: ranges in brackets are in %.
Method: as §1, §2, §3, §4

[5] = system: Fusarium oxysporum f. sp. cucumerinum; experiment: In vitro fungicidal evaluation, FUSOXC; format: cell-based; conditions: 25 ppm; 3-7 days at 21° C. Also: ranges in brackets are in %.
Method: as §1, §2, §3, §4

Pyricularia grisea = format: in vivo; conditions: Rice Blast; 200 ppm foliar spray
Plasmopara viticola = experiment: In vivo fungicidal evaluation, Grape Downy Mildew (GDM); conditions: 200 ppm foliar spray; also: ranges in brackets are in %
Method: as §5, with “|GDM Grape Downy Mildew” for “|SBC Sugar Beet Cercospora”, “Plasmopara viticola” for “Cercospora beticola”

Alternaria solani = experiment: In vivo fungicidal evaluation, Tomato Early Blight (TEB); conditions: 200 ppm foliar spray; also: ranges in brackets are in %
Method: as §5, with “|TEB Tomato Early Blight” for “|SBC Sugar Beet Cercospora”, “Alternaria solani” for “Cercospora beticola”

Venturia inaequalis = experiment: In vivo fungicidal evaluation, Apple Scab (AS); conditions: 200 ppm foliar spray; also: ranges in brackets are in %
Method: as §5, with “|AS Apple Scab Venturia inaequalis” for “|SBC Sugar Beet Cercospora | Cercospora beticola”

[6] = system: Erysiphe graminis f. sp. tritici; experiment: In vivo fungicidal evaluation, Wheat Powdery Mildew (WPM); conditions: 200 ppm foliar spray; also: ranges in brackets are in %
Method: as §5, with “|WPM Wheat Powdery Mildew” for “|SBC Sugar Beet Cercospora”, “Erysiphe graminis | f. sp. tritici” for “Cercospora beticola”

Structure (SMILES) | Resistance Factor, Cladosporium cucumerinum [1] | Resistance Factor, Septoria nodorum [2] | Resistance Factor, Ustilago avenae [3] | Disease control rating, WSN (Septoria nodorum) | Growth inhibition rating, PYTHUL (Pythium ultimum) | Disease control rating, SBC (Cercospora beticola) | Disease control rating, PB (Botrytis cinerea) | Growth inhibition rating, PSDCHE [4] | Growth inhibition rating, RHIZSO (Rhizoctonia solani) | Growth inhibition rating, FUSOXC [5] | Disease control rating, RB (Pyricularia grisea) | Disease control rating, GDM (Plasmopara viticola) | Disease control rating, TEB (Alternaria solani) | Disease control rating, AS (Venturia inaequalis) | Disease control rating, WPM [6]
Clc1ccc(COC(Cn2ccnc2)c2ccc(Cl)cc2Cl)c(Cl)c1 (centres unmarked) [Miconazole nitrate, reference compound] | 2.4 | 2.5 | 4.1 | – | – | – | – | – | – | – | – | – | – | – | –
OC(c1ccc(Cl)cc1)(c1cncnc1)c1ccccc1Cl (centres unmarked) [Fenarimol, reference compound] | – | 9.6 | 9.9 | – | – | – | – | – | – | – | – | – | – | – | –
Clc1ccc(C(OB(c2ccccc2)c2ccccc2)(c2cncnc2)c2ccccc2Cl)cc1 (centres unmarked) [Compound 2, (o-Chlorophenyl)(p-chlorophenyl)(5-pyrimidinyl)methyl diphenylborinate] | – | 1.3 | 1.3 | 8 (96-99) | 7 (90-99) | 9 (100) | 8 (96-99) | 0 (0) | 9 (100) | 9 (100) | 0 (0) | 3 (30-44) | 8 (96-99) | 9 (100) | 8 (96-99)
Clc1ccc(COC(Cn2ccnc2)c2ccc(Cl)cc2Cl)cc1 (centres unmarked) [Econazole nitrate, reference compound] | 2.0 | 1.8 | 2.0 | – | – | – | – | – | – | – | – | – | – | – | –
Fc1ccc(B(OC(c2ccc(Cl)cc2)(c2cncnc2)c2ccccc2Cl)c2ccc(F)cc2)cc1 (centres unmarked) [Compound 5, (o-Chlorophenyl)(p-chlorophenyl)(5-pyrimidinyl)methyl bis(p-fluorophenyl)borinate] | – | – | – | 7 (90-95) | 1 (1-29) | 7 (90-95) | 0 (0) | 0 (0) | 7 (90-99) | 0 (0) | 0 (0) | 0 (0) | 3 (30-44) | 7 (90-95) | 8 (96-99)
Fc1ccc(B(OC(Cn2ccnc2)c2ccc(Cl)cc2Cl)c2ccc(F)cc2)cc1 (centres unmarked) [Compound 1, 1-(2,4-Dichlorophenyl)-2-(imidazol-1-yl)ethyl bis(p-fluorophenyl)borinate] | 1.5 | 1.2 | 2.6 | 0 (0) | 5 (60-89) | 6 (75-89) | 0 (0) | 0 (0) | 7 (90-99) | 5 (60-89) | 8 (96-99) | 0 (0) | 4 (45-59) | 0 (0) | 8 (96-99)
CC(C)(C)C(CCc1ccc(Cl)cc1)(Cn1cncn1)OB(c1ccc(F)cc1)c1ccc(F)cc1 (centres unmarked) [Compound 4, 1-Tert-butyl-3-(p-chlorophenyl)-1-(1H-1,2,4-triazol-1-ylmethyl)propyl bis(p-fluorophenyl)borinate] | 1.3 | 1.9 | 2.3 | 2 (15-29) | 9 (100) | 6 (75-89) | 7 (90-95) | 0 (0) | 9 (100) | 9 (100) | 6 (75-89) | 8 (96-99) | 6 (75-89) | 7 (90-95) | 8 (96-99)
Clc1ccc(C(Cn2ccnc2)OB(c2ccccc2)c2ccccc2)c(Cl)c1 (centres unmarked) [Compound 6, 1-(2,4-Dichlorophenyl)-2-(imidazol-1-yl)ethyl diphenylborinate] | 1.1 | 1.0 | 1.6 | 0 (0) | 7 (90-99) | 5 (60-74) | 0 (0) | 0 (0) | 9 (100) | 9 (100) | 0 (0) | 0 (0) | 0 (0) | 3 (30-44) | 8 (96-99)
CC(C)(C)C(O)(CCc1ccc(Cl)cc1)Cn1cncn1 (centres unmarked) [Tebuconazole, reference compound] | – | 6.1 | – | – | – | – | – | – | – | – | – | – | – | – | –
CC(C)(C)C(CCc1ccc(Cl)cc1)(Cn1cncn1)OB(c1ccccc1)c1ccccc1 (centres unmarked) [Compound 3, 1-Tert-butyl-3-(p-chlorophenyl)-1-(1H-1,2,4-triazol-1-ylmethyl)propyl diphenylborinate] | 1.7 | 1.8 | 2.0 | 0 (0) | 9 (100) | 6 (75-89) | 6 (75-89) | 0 (0) | 9 (100) | 9 (100) | 6 (75-89) | 9 (100) | 6 (75-89) | 8 (96-99) | 8 (96-99)
